Consider three compounds from patent US5665764A, “Tricyclic inhibitors of matrix metalloproteinases” (Warner-Lambert Company, priority 1995, dated 1997).

The test system of data set [1] is experimental allergic encephalomyelitis (EAE). The experiment in a line: EAE Lewis rat acute model, Protocol 1 (daily oral dosing). The format is in vivo, female Lewis rats. How it is done: (§1) The activity of Example 2 in suppressing the inflammatory disease associated with EAE was tested using the Lewis rat acute model. Female Lewis rats were purchased from Harlan Sprague-Dawley (Indianapolis, Ind.) and were used at 8 to 10 weeks of age. Active EAE was induced by injection of 0.05 mL emulsion of myelin basic protein (MBP) with complete Freund's adjuvant (CFA), containing 25 μg guinea pig MBP and 100 μg Mycobacterium butyricum (Difco Laboratories, Detroit, Mich.) into one hind footpad. Immunized rats were observed daily for clinical signs of EAE and scored as follows: 0, no symptoms; 1, loss of tail tonicity; 2, paresis; 3, hind limb paralysis, often accompanied by incontinence; and 4, death. Formalin-fixed brain slice sections were stained with hematoxylin-eosin and evaluated microscopically for perivascular and parenchymal infiltration. Compound was administered by gavage as a solution in sterile saline in a volume of 500 μL. The dose of 50 mg/kg typically required 7.5 mg of compound per rat. Several different protocols were used to define the efficacy and timing retirements for potency.
Protocol 1: Compound was administered daily at 50 mg/kg beginning on Day 0 and continuing through Day 14, with MBP in CFA administered on Day 0 also. […] The percentage of animals responding is also very high with 100% of treated animals-showing either a total inhibition of symptoms (80%) or reduction of symptoms (20%). N=5 for all groups.

Data set [2] concerns leukocyte migration across the blood-brain barrier. In words: Histology of brain slices from EAE rats, Protocol 1. The format is in vivo, Lewis rat. The settings on record: 50 mg/kg daily. Here is the method:
as §1

In data set [3] the test system is experimental allergic encephalomyelitis (EAE). The experiment in a line: EAE Lewis rat acute model, Protocol 2 (alternate day dosing). The format is in vivo, female Lewis rats. The settings on record: for Effect on EAE Rats (≥ Paresis/Total): CFA + MBP, PBS control 5/7. How it is done:
as §1
Protocol 2: To determine whether less frequent dosing or dosing at lower levels was still effective at suppressing EAE, compound was administered at either 50 mg/kg or at 10 mg/kg on Day 0 and on alternate days through Day 14. […] Controls run in parallel included CFA only and MBP in CFA. N=4 for treatment groups. N=8 for controls.

The test system of data set [4] is Mycobacterium footpad edema. The experiment in a line: Mycobacterium footpad edema assay (MFE). The format is in vivo, male Wistar rats. The settings on record: daily, third day, statistically significant. Here is the method: The activity of Example 2 as a general inhibitor of inflammation was tested using the Mycobacterium footpad edema assay (MFE) in Wistar rats. Compound was administered daily by gavage at 2 mg/kg, 10 mg/kg, or 50 mg/kg.
Male outbred Wistar rats (110-125 g, Charles River Labs, Portage, Mich.) were used in this study. Rats were housed for a minimum of 1 week before use. Food and water were supplied ad libitum. Foot pad edema was induced following the method described by Martel R. R. and Klicius J., "Comparisons in rats of the anti-inflammatory and gastric irritant effects of etodolac with several clinically effective antiinflammatory drugs", Agents and Actions, 1982;12:295. Briefly, male Wistar rats were injected subcutaneously into the right hind footpad with 0.1 mL of 5 mg/mL suspension of killed and dried Mycobacterium butyricum (Difco, Detroit, Mich.) in liquid paraffin. Compound was suspended in 0.5% hydroxypropylmethylcellulose (HPMC) containing 0.2% Tween-80 and administered orally 1 hour before injection. Subsequent doses of the compound were given 24 and 48 hours after the Mycobacterium. Control animals were given vehicle alone. Swelling was assessed on the third day by subtracting the initial volume (determined immediately following the Mycobacterium injection) from the final volume of the treated paw. Paw volume was determined by mercury plethysmography. The percent inhibition of edema achieved in each compound-treated group was determined by comparison with swelling in the vehicle-treated group and the ID50 values were determined by regression analysis. Statistical significance between experimental groups was evaluated using a Student's t-test.

Data set [5] in a line: Plasma concentrations. The format is in vivo.
Data set [6] concerns the target GCD (recombinant gelatinase A catalytic domain). In words: Inhibition of thiopeptolide substrate conversion by GCD. The format is biochemical. The settings on record: thiopeptolide substrate Ac-Pro-Leu-Gly-thioester-Leu-Leu-Gly-OEt. The source says:
Matrix metalloproteinases share high sequence hemology and the catalytic domains of each of the MMPs can be identified by sequence alignment. The gene for the catalytic domain of stromelysin-1, SCD, was constructed by removing the propeptide and C-terminal domain (Ye Q.-Z., Johnson L. L, Hupe D. J., and Baragi V., "Purification and Characterization of the Human Stromelysin Catalytic Domain Expressed in Escherichia coli", Biochemistry,1992;31:11231-11235). The gelatinase A catalytic domain, GCD, was similarly constructed with the additional removal of the fibronectin-like insert which interrupts the catalytic domain (Ye Q.-Z., Johnson L. L., Yu A. E., and Hupe D., "Reconstructed 19 kDa Catalytic Domain of Gelatinase A is an Active Proteinase", Biochemistry, 1995;34:4702-4708). Both truncated proteins cleave synthetic peptide substrates and the natural substrates proteoglycan and gelatin in a manner similar to the full-length enzymes and can be used to identify matrix metalloproteinase inhibitors.
Experiments were carried out with both the full-length enzymes and the catalytic domains. […] IC50 values were determined using a thiopeptolide substrate, Ac-Pro-Leu-Gly-thioester-Leu-Leu-Gly-OEt (Ye Q.-Z., Johnson L. L., Hupe D. J., and Baragi V., "Purification and Characterization of the Human Stromelysin Catalytic Domain Expressed in Escherichia coli", Biochemistry,1992;31:11231-11235). […]

Data set [7] deals with experimental allergic encephalomyelitis (EAE). The settings on record: dose dependent; Gijbels et al. 1994; cited from earlier work.
For data set [8], the system named is bovine nasal and pig articular cartilage. The settings on record: Andrews et al. 1992; Ellis et al. 1994; cited from earlier work.

As for `O=C(O)CCC(=NO)c1ccc2oc3ccccc3c2c1` [Example 2, 4-Dibenzofuran-2-yl-4-hydroximino-butyric acid], the “effect on average scores for the treated group” value in data set [1] (50 mg/kg daily, Day 0-14) was “substantially reduced the average scores”. The “treated animals showing either a total inhibition of symptoms or reduction of symptoms” value in data set [1] (50 mg/kg daily, Day 0-14, N=5) is recorded as 100%. Also, in data set [1] (CFA + MBP, 50 mg/kg daily oral from Day 0), the “Day of Peak” value turned out to be 12 days. For the same compound, the “Clinical Grade at Peak of Disease Expression” value in data set [1] (CFA + MBP, 50 mg/kg daily oral from Day 0, N=5, SD 1.22, PBS control 3.0) is 1.0; in data set [1] (CFA without MBP, 50 mg/kg daily oral from Day 0, N=5, SD 0) it was 0. The “Effect on EAE Rats (≥ Paresis/Total)” value is on record as 1/5 in data set [1] (CFA + MBP, 50 mg/kg daily oral from Day 0, PBS control 5/5); 0/5 in data set [1] (CFA without MBP, 50 mg/kg daily oral from Day 0); 0/4 in data set [3] (10 mg/kg alternate days); 0/4 in data set [3] (50 mg/kg alternate days). The CNS inflammation entry in data set [2] was “little CNS inflammation”. For the same compound, in data set [2], the cuff formation entry is given as “no cuff formation”. Besides, the “leukocyte migration across the blood-brain barrier” value in data set [2] was “completely prevented”. The “decrease in disease severity, significance” value in data set [3] (Day 15, p≤0.01, 10 or 50 mg/kg alternate days) is reported as “highly significant”. The figures for the “% Inhibition of Swelling” value in data set [4] (2 mg/kg oral), in data set [4] (10 mg/kg oral) and in data set [4] (50 mg/kg oral) were 23%, 27% and 40%, respectively. The “Cmax and AUC(0-b 4) versus dose” value in data set [5] (2, 10, 50 mg/kg) is on record as “increase proportionately with dose”. The “bioavailability versus effective range in vitro” value in data set [5] (effective range of gelatinase A and stromelysin-1 inhibition in the in vitro assays) is “well in excess of the effective range of gelatinase A and stromelysin-1 inhibition”. Moreover, the IC50 in data set [6] was 40 nM.

Take `CNC(=O)[C@H](Cc1c[nH]c2ccccc12)NC(=O)[C@@H](CC(=O)NO)CC(C)C` [GM6001]: the “clinical expression/development of EAE” value in data set [7] was “suppressed the development or reversed the clinical expression”.

On to “TIMP-1: natural endogenous inhibitors of MMPs (TIMPs)”, for which, in data set [8], the “formation of collagen fragments” value is recorded as “prevented the formation of collagen fragments”.
